Where a name gives a salt, the structure may show the parent alone. Read-outs that look alike come from different tables or passages of the source.
Tests used:
MMP-1 [1] = molecular target: T1, MMP-1 (Homo sapiens, UniProt P03956); conditions: read-out: MMP-1 IC50
T1 sequence (P03956 100-469): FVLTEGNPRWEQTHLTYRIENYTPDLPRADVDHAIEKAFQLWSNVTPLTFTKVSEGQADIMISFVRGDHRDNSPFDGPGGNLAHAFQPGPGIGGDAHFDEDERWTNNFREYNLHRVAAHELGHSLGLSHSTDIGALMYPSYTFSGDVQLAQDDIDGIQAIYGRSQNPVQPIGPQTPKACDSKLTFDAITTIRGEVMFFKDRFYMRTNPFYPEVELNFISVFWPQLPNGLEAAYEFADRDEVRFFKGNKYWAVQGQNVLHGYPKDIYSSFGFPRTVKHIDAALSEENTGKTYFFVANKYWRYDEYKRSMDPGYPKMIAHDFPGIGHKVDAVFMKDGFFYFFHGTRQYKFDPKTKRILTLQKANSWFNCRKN

TACE = TACE (Homo sapiens, UniProt P78536); assay: TACE inhibition (fluorescent peptidyl substrate); assay type: biochemical; conditions: for inhibition at 1 µM: at 1 μM concentration, read-out: TACE % inhibition
Chain of TACE (P78536 215-824): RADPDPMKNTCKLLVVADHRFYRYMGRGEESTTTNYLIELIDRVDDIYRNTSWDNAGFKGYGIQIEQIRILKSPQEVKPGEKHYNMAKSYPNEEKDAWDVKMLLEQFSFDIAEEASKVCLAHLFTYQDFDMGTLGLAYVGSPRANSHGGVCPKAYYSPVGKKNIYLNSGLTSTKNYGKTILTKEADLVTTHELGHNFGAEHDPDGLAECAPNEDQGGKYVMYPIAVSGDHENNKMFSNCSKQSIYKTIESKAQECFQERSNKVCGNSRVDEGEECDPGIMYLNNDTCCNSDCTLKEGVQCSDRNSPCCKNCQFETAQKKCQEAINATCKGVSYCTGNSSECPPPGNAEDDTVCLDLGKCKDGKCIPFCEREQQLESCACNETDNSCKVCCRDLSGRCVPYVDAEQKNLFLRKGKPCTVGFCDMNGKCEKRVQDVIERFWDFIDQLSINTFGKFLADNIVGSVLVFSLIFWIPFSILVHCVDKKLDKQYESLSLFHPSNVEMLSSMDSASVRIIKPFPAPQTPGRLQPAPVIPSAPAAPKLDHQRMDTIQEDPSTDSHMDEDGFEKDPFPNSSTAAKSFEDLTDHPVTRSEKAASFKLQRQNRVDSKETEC
Protocol: Using 96-well black microtiter plates, each well receives a solution composed of 10 μL TACE (final concentration 1 μg/mL), 70 μL Tris buffer, pH 7.4 containing 10% glycerol (final concentration 10 mM), and 10 μL of test compound solution in DMSO (final concentration 1 μl M, DMSO concentration <1%) and incubated for 10 minutes at room temperature.
The reaction is read (excitation 340 nm, emission 420 nm) for 10 min. and the increase in fluorescence over time is plotted as a linear line. The slope of the line is calculated and represents the reaction rate.
The linearity of the reaction rate is confirmed (r^2>0.85). The mean (x±sem) of the control rate is calculated and compared for statistical significance (p<0.05) with drug-treated rates using Dunnett's multiple comparison test.

MMP-9 = MMP-9 (Homo sapiens, UniProt P14780); assay: MMP-9 inhibition (thiopeptide or fluorescent peptide substrate); assay type: biochemical; conditions: read-out: MMP-9 IC50
Chain of MMP-9 (P14780 94-707): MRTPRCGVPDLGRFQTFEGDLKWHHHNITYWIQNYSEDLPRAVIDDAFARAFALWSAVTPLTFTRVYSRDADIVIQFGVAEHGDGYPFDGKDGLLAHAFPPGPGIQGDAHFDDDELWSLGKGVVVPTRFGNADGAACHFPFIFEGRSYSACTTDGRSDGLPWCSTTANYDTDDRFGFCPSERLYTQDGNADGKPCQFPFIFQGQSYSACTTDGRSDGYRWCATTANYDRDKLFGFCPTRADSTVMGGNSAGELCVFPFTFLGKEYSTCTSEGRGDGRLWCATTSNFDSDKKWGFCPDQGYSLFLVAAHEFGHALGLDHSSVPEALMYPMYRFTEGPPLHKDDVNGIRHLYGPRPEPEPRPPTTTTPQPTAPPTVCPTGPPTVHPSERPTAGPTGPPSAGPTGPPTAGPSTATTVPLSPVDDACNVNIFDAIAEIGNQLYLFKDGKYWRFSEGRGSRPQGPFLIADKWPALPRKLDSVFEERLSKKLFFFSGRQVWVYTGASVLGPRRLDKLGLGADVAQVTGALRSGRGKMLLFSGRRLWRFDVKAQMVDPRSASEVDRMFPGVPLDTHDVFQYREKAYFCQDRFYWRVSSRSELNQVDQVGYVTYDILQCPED
Protocol: (§1) The enzyme activity is measured by the rate of the color increase. The thiopeptide substrate is made up fresh as a 20 mM stock in 100% DMSO and the DTNB is dissolved in 100% DMSO as a 100 mM stock and stored in the dark at room temperature. Both the substrate and DTNB are diluted together to 1 mM with substrate buffer (50 mM HEPES pH 7.5, 5 mM CaCl2) before use. The stock of enzyme is diluted with buffer (50 mM HEPES, pH 7.5, 5 mM CaCl2, 0.02% Brij) to the desired final concentration.
(§2) Alternatively, a fluorescent peptide substrate is used. In this test procedure, the peptide substrate contains a fluorescent group and a quenching group. Upon cleavage of the substrate by an MMP, the fluorescence that is generated is quantitated on the fluorescence plate reader. The assay is run in HCBC assay buffer (50 mM HEPES, pH 7.0, 5 mM Ca^+2, 0.02% Brij, 0.5% Cysteine), with human recombinant MMP-1, MMP-9, or MMP-13. The substrate is dissolved in methanol and stored frozen in 1 mM aliquots. For the assay, substrate and enzymes are diluted in HCBC buffer to the desired concentrations. Compounds are added to the 96 well plate containing enzyme and the reaction is started by the addition of substrate.
(§3) For either the thiopeptide or fluorescent peptide test procedures, the slope of the line is calculated and represents the reaction rate. The linearity of the reaction rate is confirmed (r^2>0.85). The mean (x±sem) of the control rate is calculated and compared for statistical significance (p<0.05) with drug-treated rates using Dunnett's multiple comparison test.

MMP-13 [2] = molecular target: T2, MMP-13 (Homo sapiens, UniProt P45452); assay: In vivo MMP inhibition test procedure (implanted dialysis tubing containing enzyme); parameters: species or system rat or mouse; conditions: p.o. vs MMP-13
Protocol: A 2 cm piece of dialysis tubing (molecular weight cut-off 12-14,000, 10 mm flat width) containing matrix metalloproteinase enzyme (stromelysin, collagenase or gelatinase in 0.5 mL of buffer) is implanted either ip or sc (in the back) of a rat (Sprague-Dawley, 150-200 g) or mouse (CD-1, 25-50 g) under anesthesia. Drugs are administered PO, IP, SC or IV through a canula in the jugular vein. […] Contents of the dialysis tubing is collected and enzyme activity assayed.
Enzyme reaction rates for each dialysis tube are calculated. Tubes from at least 3 different animals are used to calculate the mean±sem. Statistical significance (p<0.05) of vehicle-treated animals versus drug-treated animals is determined by analysis of variance.

MMP-13 [3] = molecular target: T2, MMP-13; assay: MMP-13 inhibition (thiopeptide or fluorescent peptide substrate); assay type: biochemical
Protocol: as §1, §2, §3

MMP-1 [4] = molecular target: T1, MMP-1; assay: biochemical; conditions: for IC50: MMP-1 IC50

Molecule	IC50 (MMP-9) [nM]	melting point	IC50 (MMP-13 [3]) [nM]	IC50 (MMP-1 [4]) [nM]	further results
4-[(4-Methoxy-benzenesulfonyl)-pyridin-3-ylmethyl-amino]-8-thiophen-2-yl-quinoline-3-carboxylic acid hydroxyamide [Example 41]					IC50 (MMP-1 [1]): 136 nM
4-[Methyl-(4-methoxy-benzenesulfonyl)-amino]-6-phenylethyl-quinoline-3-carboxylic acid hydroxyamide [Example 35]					IC50 (MMP-1 [1]): 234 nM; IC50 (TACE): 49 nM
4-{Methyl-(4-(pyridin-4-yloxy)-benzenesulfonyl]-amino}-6-iodo-quinoline-3-carboxylic acid hydroxyamide hydrochloride [Example 33]					IC50 (MMP-1 [1]): 1010 nM
4-{[4-(4-Chlorophenyloxy)benzenesulfonyl]methylamino}-1,3-dimethyl-1H-pyrazolo[3,4-b]pyridine-5-carboxylic Acid, Hydroxyamide [Example 89]	0.8				IC50 (MMP-1 [1]): 116 nM; in-vivo MMP % inhibition (MMP-13 [2]; dose 25 mg/kg): 6% (25); IC50 (TACE): 356 ± 15 nM
4-{[4-(4-Chlorophenyloxy)benzenesulfonyl]methylamino}-3-methylisothiazolo[5,4-b]pyridine-5-carboxylic Acid Hydroxyamide [Example 90]					in-vivo MMP % inhibition (MMP-13 [2]; dose 25 mg/kg): 39% (25)
Cc1nn(C)c2ncc(C(=O)NO)c(N(C)S(=O)(=O)c3ccc(Oc4ccncc4)cc3)c12 (as salt: hydrochloride) [91(HC1), 4-{Methyl-[4-(4-pyridinyloxy)benzenesulfonyl]amino}-1,3-dimethyl-1H-pyrazolo[3,4-b]pyridine-5-carboxylic Acid, Hydroxyamide]		147 °C (dec.)			
CN(c1c(C(=O)NO)cnc2c1c(-c1ccccc1)nn2C)S(=O)(=O)c1ccc(Oc2ccncc2)cc1 (as salt: hydrochloride) [Example 93, 4-{Methyl-[4-(4-pyridinyloxy)benzenesulfonyl]amino}-1-methyl-3-phenyl-1H-pyrazolo[3,4-b]pyridine-5-carboxylic acid, Hydroxyamide]		195 °C (dec.)			
Cc1noc2ncc(C(=O)NO)c(N(C)S(=O)(=O)c3ccc(Oc4ccncc4)cc3)c12 (as salt: hydrochloride) [Example 94, 4-{Methyl-[4-(4-pyridinyloxy)benzenesulfonyl]amino}-3-methylisoxazolo[5,4-b]pyridine-5-carboxylic acid, Hydroxyamide,]		170 °C (dec.)			
COc1ccc(S(=O)(=O)N(Cc2cccnc2)c2c(C(=O)NO)cnc3snc(C)c23)cc1 (as salt: salt) [Example 86, 4-[(4-Methoxybenzenesulfonyl)pyridin-3-ylmethylamino]-3-methylisothiazolo[5,4-b]pyridine-5-carboxylic Acid, Hydroxyamide]		224 °C (dec.)			
COc1ccc(S(=O)(=O)N(Cc2cccnc2)c2c(C(=O)NO)cnc3onc(C)c23)cc1 (as salt: salt) [Example 87, 4-[(4-Methoxybenzenesulfonyl)pyridin-3-ylmethylamino]-3-methylisoxazolo[5,4-b]pyridine-5-carboxylic Acid, Hydroxyamide]		212 to 215 °C			
COc1ccc(S(=O)(=O)N(Cc2cccnc2)c2c(C(=O)NO)cnc3cc(C)nn23)cc1 (as salt: salt) [Example 88, 7-[(4-Methoxybenzenesulfonyl)pyridin-3-ylmethylamino]-2-methylpyrazolo[1,5-a]pyrimidine-6-carboxylic Acid, Hydroxyamide]		170 °C (dec.)			
COc1ccc(S(=O)(=O)N(Cc2cccnc2)c2c(C(=O)NO)cnc3cc(C(F)(F)F)ccc23)cc1 [Example 16, 4-[(4-Methoxybenzenesulfonyl)-pyridin-3-ylmethylamino]-7-trifluoromethyl-quinoline-3-carboxylic acid hydroxyamide]	6		3		in-vivo MMP % inhibition (MMP-13 [2]; dose 100 mg/kg): 64% (100); inhibition at 1 µM (TACE): 36%
COc1ccc(S(=O)(=O)N(Cc2cccnc2)c2c(C(=O)NO)cnc3c(OC)cccc23)cc1 [Example 36, 4-[(4-Methoxy-benzenesulfonyl)-pyridin-3-ylmethyl-amino]-8-methoxy-quinoline-3-carboxylic acid hydroxyamide]	2		1		in-vivo MMP % inhibition (MMP-13 [2]; dose 50 mg/kg): 81% (50); IC50 (TACE): 226 nM
COc1ccc(S(=O)(=O)N(Cc2ccccc2)c2c(C(=O)NO)cnc3c2c(C)nn3C)cc1 [Example 52, 4-[Benzyl-(4-methoxybenzenesulfonyl)amino]-1,3-dimethyl-1H-pyrazolo[3,4-b]pyridine-5-carboxylic acid, hydroxyamide]	2.4		1.4	45	in-vivo MMP % inhibition (MMP-13 [2]; dose 100 mg/kg): 74% (100); IC50 (TACE): 236 nM
COc1ccc(S(=O)(=O)N(Cc2cccnc2)c2c(C(=O)NO)cnc3c2c(C)nn3C)cc1 [Example 60, 4-[(4-Methoxybenzenesulfonyl)pyridin-3-ylmethylamino]-1,3-dimethyl-1H-pyrazolo[3,4-b]pyridine-5-carboxylic acid, hydroxyamide]		196 to 198 °C			
COc1ccc(S(=O)(=O)N(Cc2ccccc2)c2c(C(=O)NO)cnc3c2cnn3-c2ccccc2)cc1 [Example 62, 4-[Benzyl-(4-methoxybenzenesulfonyl)amino]-1-phenyl-1H-pyrazolo[3,4-b]pyridine-5-carboxylic acid, hydroxyamide]	5.7		23	1240	inhibition at 1 µM (TACE): 46%
COc1ccc(S(=O)(=O)N(Cc2ccccc2)c2c(C(=O)NO)cnc3c2c(C)nn3-c2ccccc2)cc1 [Example 66, 4-[Benzyl-(4-methoxybenzenesulfonyl)amino]-1-phenyl-3-methyl-1H-pyrazolo[3,4b]pyridine-5-carboxylic acid, hydroxyamide]	0.81		0.27	512	in-vivo MMP % inhibition (MMP-13 [2]; dose 25 mg/kg): 5% (25)
COc1ccc(S(=O)(=O)N(Cc2cccnc2)c2c(C(=O)NO)cnc3onc(C)c23)cc1 [Example 87, 4-[(4-Methoxybenzenesulfonyl)pyridin-3-ylmethylamino]-3-methylisoxazolo[5,4-b]pyridine-5-carboxylic Acid, Hydroxyamide]	8.9		10	111	IC50 (TACE): 147 ± 5 nM
COc1ccc(S(=O)(=O)N(Cc2cccnc2)c2c(C(=O)NO)cnc3cc(C)nn23)cc1 [Example 88, 7-[(4-Methoxybenzenesulfonyl)pyridin-3-ylmethylamino]-2-methylpyrazolo[1,5-a]pyrimidine-6-carboxylic Acid, Hydroxyamide]	10.4		18.7	643	inhibition at 1 µM (TACE): 40.5%
Cc1nsc2ncc(C(=O)NO)c(N(C)S(=O)(=O)c3ccc(Oc4ccncc4)cc3)c12 [Example 92, 4-{Methyl-[4-(4-pyridinyloxy)benzenesulfonyl]amino}-3-methylisothiazolo[5,4-b]pyridine-5-carboxylic Acid, Hydroxyamide]	12	146 °C (dec.)	6.1		in-vivo MMP % inhibition (MMP-13 [2]; dose 25 mg/kg): 30% (25); inhibition at 10 µM (MMP-1 [4]; read-out: MMP-1 % inhibition): 60.2%; IC50 (TACE): > 1640 nM
CN(c1c(C(=O)NO)cnc2c1c(-c1ccccc1)nn2C)S(=O)(=O)c1ccc(Oc2ccncc2)cc1 [Example 93, 4-{Methyl-[4-(4-pyridinyloxy)benzenesulfonyl]amino}-1-methyl-3-phenyl-1H-pyrazolo[3,4-b]pyridine-5-carboxylic acid, Hydroxyamide]	10.1		3.9	8790	in-vivo MMP % inhibition (MMP-13 [2]; dose 25 mg/kg): 49% (25); inhibition at 1 µM (TACE): 34.9%
Cc1noc2ncc(C(=O)NO)c(N(C)S(=O)(=O)c3ccc(Oc4ccncc4)cc3)c12 [Example 94, 4-{Methyl-[4-(4-pyridinyloxy)benzenesulfonyl]amino}-3-methylisoxazolo[5,4-b]pyridine-5-carboxylic acid, Hydroxyamide,]	3		3.2	2550	in-vivo MMP % inhibition (MMP-13 [2]; dose 25 mg/kg): 12% (25); inhibition at 1 µM (TACE): 41.6%

From patent US6534491B2, “Preparation and use of ortho-sulfonamido bicyclic heteroaryl hydroxamic acids as matrix metalloproteinase and tace inhibitors” (priority 1996, dated 2003)
